Data from patent publication US20250163522A1, “METHODS FOR PRESERVING HEALTHY INTESTINAL MICROBIOME DURING GROWTH PROMOTER ADMINSTRATION” (BIOMEDIT, LLC, priority 2022, published 2025).
“Also recorded” adds a separate entry of the source.

How the values were obtained:
Assay type in all cases: in vivo, chickens (Gallus gallus)
Ross 708 male broilers = experiment: Clinical study of in-feed AGPs in broilers: weight gain and feed conversion; settings: in-feed: 50 g/ton BMD, 20 g/ton avilamycin, 16.5 g/ton virginiamycin, 70 g/ton narasin; 35 days
From the text: 500 healthy Ross 708 male broilers sourced from a commercial hatchery were used in the experiment. […] Birds were individually tagged with a unique identifier and were randomly assigned to one of 25 floor pens (20 animals per pen). Groups of 5 pens were assigned to each of 5 different treatments. The 5 treatments included: 1) control birds fed least-cost diets as follows: A starter diet was fed from days 0 to 14 of the study, followed by a grower diet (14-28d) and a finisher diet (28-35d). 2) Birds fed the above diets supplemented with 50 g/ton BMD. 3) Supplemented with 20 g/ton avilamycin. 4) Supplemented with 16.5 g/ton Virginiamycin. And 5) supplemented with 70 g/ton narasin. Birds were raised for 35 days in a barn on top of used litter.
Individual body weights were collected on days 0, 7, 21 and 35. Pen weights were collected on days 14 and 28. Feed weigh backs for each pen were done on days 7, 14, 21, 28 and 35 of the study. Average bird weights and feed intake per pen were used to calculate weekly values of average daily gain and feed conversion ratios. Weekly values were compared between treatments using the Mann Whitney U test. On days 7, 21 and 35 three birds per pen were randomly selected and euthanized for the collection of cecal contents and blood. Blood was collected via wing vein venipuncture, except for birds that were too small, in which cases direct heart puncture was used. In both cases, blood was collected into vacutainer tubes and centrifuged to obtain serum. Cecal samples were collected by aseptically squeezing the cecum content into a sterile tube. Cecal samples were placed on dry ice immediately after collection. All samples were stored at −80° C. until processing.

cecal microbiome [1] = experiment: 16S rRNA amplicon profiling of cecal microbiome of AGP treated broilers; settings: days 21 and 35
Description: Total DNA from frozen cecal content samples were extracted using the Lysis and Purity kit (Shoreline Biome, Farmington, CT) following the manufacturer's protocol. The resulting DNA was used for library preparation with the Shoreline Biome V4 16S DNA Purification and Library Prep Kit (Shoreline Biome, Farmington, CT). PCR amplification of the V4 region of the 16S rRNA gene was performed using the 515F (5′[…]) and 806R (5′-[…]) primers. The resulting amplicons were then sequenced using 2×250 bp paired-end kits on the Illumina MiSeq platform.
Paired raw reads were processed with cutadapt (v. 2.5) (Martin, M. Cutadapt 2011 17, 3, doi: 10.14806/ej. 17.1.200 (2011)) followed by DADA2 (v.1.12.1) (Callahan et al., Nat Methods 13, 581-581 (2016)) to generate a matrix of read counts per sample at the level of amplicon sequence variants (ASVs). […] Reads assigned to the Vibrionaceae family were removed from the analysis, these correspond to a small amount (˜1% relative abundance) of Vibrio harveyii that was spiked in some of the samples. The mean sequencing depth after filtering was 43,955 reads per sample (standard deviation=12,391). The Chao, Simpson, and Shannon measures of alpha diversity were calculated from the matrix of raw counts using the scikit-bio (v. 0.5.6) python package and compared across treatments at each sampling time using the Mann-Whitney U test. […]

cecal microbiome [2] = experiment: Shotgun metagenomics (functional/taxonomic profiles, GSEA) of cecal microbiome, day 35 broilers; settings: for functional processes enriched in cecal microbiome relative to controls (GSEA): day 35 cecal samples
Description: 74 frozen cecal samples from day 35 birds were sent to CosmosID (Rockville, MD) for shotgun metagenomics sequencing. DNA was extracted using the ZymoBIOMICS DNA Miniprep Kit (ZymoBIOMICS, Irvine, CA) according to the manufacturers protocol. The isolated DNA was quantified by Qbit (ThermoFisher, Coon Rapids, MN). DNA libraries were prepared using the Illumina Nextera XT library preparation kit (Illumina, San Diego, CA), with a modified protocol. Libraries were then sequenced on an Illumina HiSeq platform 2×150 bp.
Reads were trimmed and Illumina adapters removed using Trimmomatic (v 0.39) (Bolger et al., Bioinformatics 30, 2114-2120 (2014)) with options SLIDINGWINDOW:5:20 LEADING:3 TRAILING:3. Host reads (Gallus gallus, GenBank assembly GCA_000002315) and spike-in reads from Vibrio harveyii (ATCC 14126) were removed using Bowtie2 (v. 2.3.5.1) (Langmead et al., Nat Methods 9, 357-359 (2012)).
Taxonomic profiling of individual reads was carried out using Kaiju (v. 1.7.3) (Menzel et al., Nat Commun 7, 11257 (2016)) with the nr_euk database. Kaiju outputs were summarized for each read as the number of bases aligned to proteins in the reference database. In cases of individual reads mapping to more than one taxonomic group, the number of bases assigned to each taxon was calculated as the alignment length (in base pairs) multiplied by the fraction of bases assigned unambiguously to said taxon out of all the taxa to which the read mapped. The numbers of assigned bases per read were used to estimate species-level relative abundances using metametamerge (v. 1.1) (Piro, V. C., et al., Microbiome 5, 101 (2017).) taking into account the average coding length per species in the nr_euk database.
Functional profiling was done by first assembling the reads from each sample into contigs using Spades (v. 3.13.1, option --meta) (Nurk, S. et al., Genome Res 27, 824-834 (2017)), with default parameters, followed by protein prediction with Prokka (v. 1.14.5) (Seemann, T. Prokka: Bioinformatics 30, 2068-2069 (2014).). Predicted protein sequences were aligned to a reference database and using Diamond (v. 0.9.30) (Buchfink, B. et al. Nat Methods 18, 366-368 (2021)) and annotated based on the function assigned to the top hit in the database. To avoid misannotations, (Plata, G. et al. Nat Chem Biol 8, 848-854 (2012)) the inventors only considered hits with at least 70% identity and 70% query coverage. The reference database was built starting from 46,181 complete bacterial genomes downloaded from the PATRIC (Davis, J. J. et al. Nucleic Acids Res 48, D606-D612 (2020)) database representing at most 10 genomes per species from ˜400 taxonomic families including those most frequently observed in broiler microbiomes. To speed up functional annotations, protein sequences within each family in the database were clustered at 90% sequence identity using CD-HIT (v. 4.8.1) (Huang, Y. et al. Bioinformatics 26, 680-682 (2010)) and the longest sequence from each cluster was kept for the diamond search.
To quantify the abundance of each function per sample, reads were mapped to the corresponding contigs using BWA (v. 0.7.17) (Li, H. & Durbin, R. Bioinformatics 25, 1754-1760 (2009)), and reads mapping to each predicted protein were counted with HTseq (v. 0.11.3) (Anders, S. et al. Bioinformatics 31, 166-169 (2015)). Read counts per RAST functional role were TPM normalized based on the Prokka protein lengths (Zhao, S. et. al. RNA 26, 903-909 (2020)) and expressed in units of mean copy numbers per genome by calculating a normalization factor such that the median abundance of a set of universal-single copy bacterial genes (Creevey, C. J. et al. PLOS One 6, e22099 (2011)) was set to 1 (Manor, O. & Borenstein, E. Genome Biology 16, 53 (2015)). A similar procedure was used to produce a copy-number normalized matrix of functional roles across samples stratified by the bacterial genera of the protein hits used to transfer functional annotations. […]

[3] = tested on: AMR genes in the cecum microbiome; experiment: AMR gene abundance analysis (AMR++ pipeline) of cecal microbiome; settings: day 35 cecum; for AMR gene classes changed compared to controls: Mann-Whitney U p-value<0.05; for total number of different AMR genes detected: compared to control; for total AMR gene abundance compared to control: RPKM
Description: AMR gene abundances per sample were determined using the AMR++ pipeline (Lakin, S. M. et al., Nucleic Acids Res 45, D574-D580 (2017)) (v. 2.0.2) starting from the raw metagenomics sequences and using the MegaRes (v. 2.0.0) database. Only genes involved in drug resistance were considered. The AMR gene counts per sample obtained from AMR++ were expressed in unites of reads per kilobase per million reads (RPKM) based on the corresponding gene lengths from the MegaRes database. RPKM values across treatments were compared using the Mann-Whitney U test.

Compound | impact on bird performance (Ross 708 male broilers) | similarity of 16S cecal microbiome composition to control samples (ANOSIM R score) (cecal microbiome [1]) | functional processes enriched in cecal microbiome relative to controls (GSEA) (cecal microbiome [2]) | effect on AMR gene abundance profiles [3] | AMR gene classes changed compared to controls [3] | total number of different AMR genes detected [3] | total AMR gene abundance compared to control [3] | Salmonella and Escherichia relative abundance in cecum (cecal microbiome [2]; day 35) [%]
COC[C@H]1O[C@@H](OC2OC[C@@H]3O[C@]4(O[C@H]3[C@H]2OC(=O)C(C)C)O[C@H](C)[C@@](O)(C(C)=O)[C@@H]2OCO[C@H]24)[C@@H](OC)[C@@H](O)[C@@H]1O[C@@H]1O[C@H](C)[C@H](OC)[C@H](O[C@H]2C[C@@]3(C)OC4(C[C@@H](O)[C@H](O[C@H]5C[C@@H](O)[C@H](OC(=O)c6c(C)c(Cl)c(O)c(Cl)c6OC)[C@@H](C)O5)[C@@H](C)O4)O[C@@H]3[C@@H](C)O2)[C@H]1O (stereo partly drawn) [avilamycin] | smallest effects on performance | higher similarity | protein synthesis and the Entner-Doudoroff pathway; also recorded: methionine metabolism, glycolysis, sporulation, and isoprenoid synthesis | minor | reduced the abundance of genes associated with resistance to nucleosides and macrolides | higher |  | 
Bacitracin methylene disalicylate [BMD] | smallest effects on performance | higher similarity | biotin synthesis; also recorded: propanediol utilization, molybdenum-containing cofactor synthesis and CO2 fixation via the Wood-Ljungdahl pathway; also recorded: protein synthesis and the Entner-Doudoroff pathway | minor |  |  | significant increase | 
virginiamycin | increased performance compared to controls |  | betaine and pyridoxine biosynthesis, stress response, bacterial secretion systems, antimicrobial resistance (AMR), and biosynthesis of Gram-negative cell wall components | significantly different AMR gene abundance profiles | enriched (Mann-Whitney U p-value<0.05) for genes involved in resistance to multiple drugs | higher | significant increase | ~50
